Laboratory results: PMC8062632, “Structural studies of phosphorylation-dependent interactions between the V2R receptor and arrestin-2” (Nature Communications, 2021)

Experiments:
Test in all cases: arrestin2 recruitment BRET assay (V2R-Rluc / arrestin2-YFP)
Assay type in all cases: cell-based
[1] = system: V2R-S357A mutant (V2Rpp-3 site); settings: HEK293 cells, 37 °C, 10 min, normalized to maximal response of V2R-WT
Procedure: (§1) After 24 h of transfection, the cells were detached and distributed into 96-well plates at a density of ~25,000 cells per well. After another 24 h incubation at 37 °C, the cells were washed twice with Tyrode’s buffer (140 mM NaCl, 2.7 mM KCl, 1 mM CaCl2, 12 mM NaHCO3, 5.6 mM D-glucose, 0.5 mM MgCl2, 0.37 mM NaH2PO4, and 25 mM HEPES, pH = 7.4) and incubated with vehicle or different concentration ligands (Argipressin) at 37 °C for 10 min Luciferase substrate coelenterazine-h was added at a final concentration of 5 μM before light emissions were recorded using a Mithras LB940 microplate reader (Berthold Technologies) equipped with BRET filter sets. The BRET signal was determined by calculating the ratio of the light intensity emitted by YFP (530/20 nm) over the light intensity emitted by Rluc (485/20 nm). Source data are provided in a Source Data file.
(§2) Supplementary Fig. 14. Surface expression and arrestin2 recruitment toward different V2R phosphor- […]
(§3) a-b). Elisa experiments to assay the expression levels of the wild type and indicated mutants of V2R or V2R-Rluc in HEK293 cells. Data from three independent experiments (n=3) are presented as mean ± SD. Statistical differences between WT and mutations were determined by two-sided one-way ANOVA with Tukey test. “ns”: the […]
(§4) c). The vasopressin-induced arrestin2 recruitment to different V2R phospho-deficient mutants were compared with V2R-WT, examined by BRET assay in a concentration dependent manner. n = 3 biologically independent replicates were examined for three independent experiments. Data (means ± SEM) of each mutant were normalized to […]
(§5) maximal response of V2R-WT. d). Statistical analysis of the Emax and pEC50 of vasopressin induced arrestin2 recruitment to V2R WT or V2R […]

[2] = system: V2R-S363A/S364A (V2Rpp-6-7 site); settings: HEK293 cells, 37 °C, 10 min, normalized to maximal response of V2R-WT
Procedure: as §1, §2, §3, §4, §5

[3] = system: wild-type V2R and V2R mutants; settings: HEK293 cells; different V2R mutants compared with wild-type V2R; 37 °C, 10 min
Procedure: as §1, §2, §3, §4, §5

V2R-T360A (V2Rpp-4 site) = settings: HEK293 cells, 37 °C, 10 min, normalized to maximal response of V2R-WT
Procedure: as §1, §2, §3, §4, §5

Substance: vasopressin
- Emax of arrestin2 recruitment compared to that of wild-type V2R [1]: 60%
- Emax of arrestin2 recruitment compared to that of wild-type V2R [2]: approximately 30%
- EC50 of vasopressin-induced V2R-arrestin2 interaction [3]: similar
- Emax of arrestin2 recruitment compared to that of wild-type V2R (V2R-T360A (V2Rpp-4 site)): approximately 30%
